Reference: ChEMBL document CHEMBL1131368, “Synthesis of novel substituted pyridines as inhibitors of endothelin converting enzyme-1 (ECE-1)” (Bioorg Med Chem Lett, 1998)

Target: T1, Endothelin-converting enzyme 1 (Homo sapiens, UniProt P42892)
T1 sequence (P42892 whole entry): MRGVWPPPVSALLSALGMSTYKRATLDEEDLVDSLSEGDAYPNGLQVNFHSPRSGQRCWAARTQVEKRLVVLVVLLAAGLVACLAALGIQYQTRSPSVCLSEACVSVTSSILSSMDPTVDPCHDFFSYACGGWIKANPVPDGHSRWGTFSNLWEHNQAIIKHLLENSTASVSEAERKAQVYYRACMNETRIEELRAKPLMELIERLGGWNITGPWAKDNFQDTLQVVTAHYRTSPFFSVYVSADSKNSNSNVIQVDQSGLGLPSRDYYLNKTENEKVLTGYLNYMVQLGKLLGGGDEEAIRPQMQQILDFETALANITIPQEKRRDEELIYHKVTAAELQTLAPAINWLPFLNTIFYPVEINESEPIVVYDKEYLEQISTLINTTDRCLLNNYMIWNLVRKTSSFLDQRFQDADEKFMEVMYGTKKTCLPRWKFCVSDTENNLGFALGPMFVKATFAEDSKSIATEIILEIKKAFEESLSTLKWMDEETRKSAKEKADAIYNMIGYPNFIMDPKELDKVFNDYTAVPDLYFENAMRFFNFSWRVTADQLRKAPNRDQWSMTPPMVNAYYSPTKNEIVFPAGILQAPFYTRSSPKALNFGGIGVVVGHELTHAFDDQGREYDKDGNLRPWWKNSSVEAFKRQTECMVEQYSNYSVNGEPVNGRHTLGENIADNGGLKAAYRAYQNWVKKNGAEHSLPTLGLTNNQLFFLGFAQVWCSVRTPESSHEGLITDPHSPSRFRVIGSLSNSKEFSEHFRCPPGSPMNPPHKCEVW
Experiment: Inhibition of human recombinant Endothelin-converting enzyme 1.

Compound	IC50
COc1cc(C(=O)O)nc(-c2cscn2)c1OC	4300 nM
COc1cc(C(=O)O)nc(-c2cccn2C)c1OC	> 50000 nM
COc1ccc(C(=O)O)nc1-c1csc(-c2ccccc2)n1	1300 nM
CNc1nc(-c2nc(C(=O)O)cc(OC)c2OC)cs1	2600 nM
COc1cc(C(=O)O)nc(-c2csc(C)n2)c1OC	1400 nM
COc1ccc(C(=O)O)nc1-c1csc(C)n1	1400 nM
COc1ccc(C(=O)O)nc1-c1csc(-c2ccc(-c3ccccc3)cc2)n1	10000 nM
COc1cc(C(=O)O)nc(-c2ccsc2)c1OC	> 50000 nM
COc1cc(C(=O)O)nc(-c2ccoc2)c1OC	> 50000 nM
COc1ccc(C(=O)O)nc1-c1c[nH]cn1	2400 nM
COc1ccc(C(=O)O)nc1-c1nccs1	24000 nM
Cc1nc(-c2cccc(C(=O)O)n2)cs1	10000 nM
COc1ccc(C(=O)O)nc1-c1csc(-c2ccc3ccccc3c2)n1	1500 nM
COc1ccc(C(=O)O)nc1-c1csc(CCc2ccccc2)n1	980 nM
COc1ccc(C(=O)O)nc1-c1csc(Cc2ccccc2)n1	860 nM
